Assay results taken from patent US9199959B2, “HIV replication inhibitor” (Shionogi & Co., Ltd., priority 2011, dated 2015).

Test: Metabolism stability test, human liver microsomes
Format: in vitro ADME
Details: 30 minutes, 37° C., amount at 0 minute = 100%
Description: Commercially available pooled human hepatic microsomes and a test compound were reacted for a constant time, then a remaining rate was calculated by comparing a reacted sample and an unreacted sample, thereby a degree of metabolism of the test compound in liver was assessed. A reaction was performed (oxidative reaction) at 37° C. for 0 minute or 30 minutes in the presence of 1 mmol/L NADPH in 0.2 mL of a buffer (50 mmol/L Tris-HCl, pH 7.4, 150 mmol/L potassium chloride, 10 mmol/L magnesium chloride) containing 0.5 mg protein/mL of human liver microsomes. After the reaction, 50 μl, of the reaction solution was added to 100 μL of a methanol/acetonitrile=1/1 (v/v), mixed and centrifuged at 3000 rpm for 15 minutes. The test compound in the supernatant was quantified by LC/MS/MS, and a remaining amount of the test compound after the reaction was calculated, letting a compound amount at 0 minute reaction time to be 100%. Hydrolysis reaction was performed in the absence of NADPH and glucuronidation reaction was in the presence of 5 mM UDP-glucuronic acid in place of NADPH, followed by similar operations.

Compound: CC(=O)Nc1c(C)c(C(OC(C)(C)C)C(=O)O)c(-c2ccc(C)c(C)c2)c(C)c1-c1ccc(C)c(C)c1 (stereo not shown) [Compound I-6]
- remaining amount of compound in liver microsomes of human: 79%
